Marks after values point to notes of the source that are not given here.
Columns and labels:
[1] = Phase 1/2a study, safety profile; format: in vivo
From the text: DLTs will be assessed through Cycle 1 (28-day cycle with Day 29 laboratory assessments). For the purpose of dose escalation, the DLT observation period will be during the first cycle (28 days after the start of study treatment) in each participant. Severity of AEs will be graded according to Common Terminology Criteria for Adverse Events (CTCAE) version 5.0.

MCF7 Cells [2] = test: Combination cell proliferation assay, MCF7; format: cell-based, human
Experimental: (§1) The combination effects of PF-07104091 with palbociclib were evaluated in a cell proliferation assay with MCF7 and T47D BC cell lines. […] Drug combinations were analyzed using the Dose Equivalence Principle, and the Loewe Volume score. When modeling synergy using the Dose Equivalence Principle, the Loewe Volume score for the combination compounds should be greater than the compound self-cross controls, and the Combination Index score for the combination compounds should be less than compound self-cross controls. […] Furthermore, the isobolograms set to an anti-proliferation threshold at 70% confirm a synergistic response.

[3] = Nonclinical toxicity study, mouse; format: in vivo
Experimental: (§2) The selection of the starting dose and regimen was based on the nonclinical toxicology and PK results in accordance with the ICH S9 Guidance. Results from nonclinical toxicity studies indicate the STD10 of PF-07104091 in mouse was 150 mg/kg after BID oral administration. The human equivalent dose for the STD10 in mouse is approximately 729 mg BID (assuming a body weight of 60 kg). Per ICH-S9 guidance, one-tenth of the STD10 can be considered the appropriate starting dose. Given the predicted human t % of approximately 4 hours, the starting dose has been selected to be 75 mg BID. The human AUC0-12 hr of PF-07104091 at the proposed starting oral dose of 75 mg BID is predicted to be ˜6.5% of the observed AUC0-12 hr at the STD10 in mouse (150 mg/kg BID) and ˜80% of the observed AUC0-12 hr at the HNSTD in dog (15 mg/kg BID).

NCI-H526 cells = test: Cell cycle distribution and DNA synthesis, NCI-H526; format: cell-based; conditions: 72-hour treatment with 300 nM
Experimental: (§3) The effect of PF-07104091 on cell cycle distribution and DNA synthesis was determined following 72-hour treatment with 300 nM PF-07104091.

NCI-H526 Model = test: In vivo efficacy, NCI-H526 small cell lung cancer model; design: species or system mice; conditions: Day 15
Experimental: Female NSG (Jackson Lab) or Nu/nu (CRL) were subcutaneously implanted with tumor cells or fragments (8 mm^3 to 27 mm^3) into the dorsal region. For the MCF7 study, mice were supplemented with estrogen (sc implanted, 17β-estradiol, 0.36 mg, 90-day release pellet, Innovative Research of America, cat no. NE-121).
To establish the NCI-H526 model, tumor cells (4×10^6 cells/mouse with 50% Cultrex® Basement Membrane Matrix) were subcutaneously implanted in female Nu/nu mice. […] PF-07104091, Palbociclib at 10 mg/kg and CDK 2/4/6 inhibitor were administered (p.o.) BID (7 hr apart). TGI was assessed on Day 15 post first dose (or Day 20 post tumor cell implant).

[4] = tested on: MCF7-PalboR (resistant to palbociclib); test: Proliferation inhibition, MCF7-PalboR; format: cell-based; conditions: 168 h, read-out: Proliferation Inhibition IC50
Experimental: (§4) Anti-proliferative activity was measured in cells treated for 7 days with PF-07104091 in OVCAR3 cells, Rb mutant NCI-H526 SCLC cells, and both HR-positive HER2-negative MCF7 and the subline MCF7-PalboR (resistant to palbociclib).
The MCF7-PalboR cell model is refractory to palbociclib-induced proliferative inhibition at doses up to […], which exceeds the concentration expected to inhibit CDK4 and CDK6.

MCF7-PalboR cells = test: Cell cycle distribution and DNA synthesis, MCF7-PalboR; format: cell-based; conditions: 72-hour treatment with 300 nM
Experimental: as §3

T47D = test: In vivo efficacy, T47D breast cancer model; design: species or system mice; conditions: Day 41, 150 mg/kg BID PO
Experimental: The T47D model was established by implanting passage 3 tumor fragments into recipient mice. To establish the T47D donor mice, tumor cells (5×10^6 cell/mouse with 50% Cultrex® Basement Membrane Matrix) were subcutaneously implanted in female NSG mice. […] All mice received treatment continuously until Day 41. TGI was assessed on Day 41 post first dose.

OVCAR3 cells [5] = test: Cell cycle distribution and DNA synthesis, OVCAR3; format: cell-based; conditions: 72-hour treatment with 300 nM
Experimental: as §3

[6] = tested on: phosphorylation of Rb at Ser807/811; test: Modulation of pRb Ser807/811 in OVCAR3 cells; format: cell-based; conditions: Homo sapiens, OVCAR-3; enriched G1/S phase CCNE1-amplified OVCAR3 cells; mean; read-out: Modulation of pRB Serine 807/811 IC50
Experimental: The cellular activity of PF-07104091 was evaluated by measuring phosphorylation of Rb at Ser807/811 following treatment of enriched G1/S phase CCNE1-amplified OVCAR3 ovarian carcinoma cells.

[7] = Nonclinical toxicity study, dog; format: in vivo
Experimental: as §2

MCF7 cells [8] = test: Cell cycle distribution and DNA synthesis, MCF7; format: cell-based; conditions: 72-hour treatment with 300 nM
Experimental: as §3

OVCAR3 cells [9] = test: Proliferation inhibition, OVCAR3; format: cell-based; conditions: Homo sapiens, OVCAR-3, 168 h, treated for 7 days
Experimental: as §4

T-47D Cells = test: Combination cell proliferation assay, T47D; format: cell-based, human
Experimental: as §1

[10] = 75 mg to 500 mg BID, all cohorts, as of data cutoff

Compound: COCc1cc(C(=O)Nc2cc([C@H]3CC[C@@H](OC(=O)NC(C)C)C3)[nH]n2)n(C)n1 [PF-07104091, (1R,3S)-3-[3-({[3-(methoxymethyl)-1-methyl-1H-pyrazol-5-yl]carbonyl}amino)-1H-pyrazol-5-yl]cyclopentyl propan-2-ylcarbamate]
- DLTs related to PF-07104091 (number) [1, 10]: 15
- SAEs related to PF-07104091 (number) [1, 10]: 21
- deaths related to PF-07104091 [1, 10]: no deaths
- patients with at least one all-causality TEAE ([1]; 70 out of 77 patients, across all doses): 90.9%
- Grade 5 all-causality TEAEs (number) ([1]; Dyspnoea at the 225 mg BID (Part A) dose): One
- Grade 3 or higher all-causality TEAE: anaemia ([1]; across all doses): 6.5%
- Grade 3 or higher all-causality TEAE: fatigue ([1]; across all doses): 10.4%
- Grade 3 or higher all-causality TEAE: hypokalaemia ([1]; across all doses): 5.2%
- Grade 3 or higher all-causality TEAE: nausea ([1]; across all doses): 7.8%
- Grade 3 or higher all-causality TEAE: neutrophil count decreased ([1]; across all doses): 23.4%
- Grade 3 or higher all-causality TEAE: white blood cell count decreased ([1]; across all doses): 14.3%
- all-causality TEAEs Grade 3 or higher ([1]; across all doses): 49.4%
- all-causality TEAE: anaemia ([1]; across all doses, 77 patients): 31.2%
- all-causality TEAE: decreased appetite ([1]; across all doses, 77 patients): 20.8%
- all-causality TEAE: diarrhoea ([1]; across all doses, 77 patients): 37.7%
- all-causality TEAE: fatigue ([1]; across all doses, 77 patients): 41.6%
- all-causality TEAE: nausea ([1]; across all doses, 77 patients): 68.8%
- all-causality TEAE: neutrophil count decreased ([1]; across all doses, 77 patients): 32.5%
- all-causality TEAE: vomiting ([1]; across all doses, 77 patients): 37.7%
- all-causality TEAE: white blood cell count decreased ([1]; across all doses, 77 patients): 23.4%
- patients who discontinued study treatment due to AEs ([1]; all cohorts, as of data cutoff): 4 patients
- Grade 4 all-causality TEAE (number) ([1]; neutrophil count decreased 500 mg BID (1A) and 75 mg BID (3/1) (1B), platelet count decreased 150 mg BID (1B), neutropenia 75 mg BID (1C)): Four
- Loewe Volume (MCF7 Cells [2]): −0.08
- Best CI (MCF7 Cells [2]; Best CI Level 70): 1.04
- human equivalent dose for the STD10 in mouse ([3]; assuming a body weight of 60 kg): approximately 729 mg BID
- STD10 ([3]; mouse, BID oral administration): 150 mg/kg
- cell cycle arrest (NCI-H526 cells): significant G2/M arrest
- S phase (cell cycle distribution) (NCI-H526 cells; p=0.057): trended towards significance
- TGI % (NCI-H526 Model; 25 mg/kg BID PO): 44%
- TGI % (NCI-H526 Model; 75 mg/kg BID PO): 45%
- IC50 [4]: 680 nM
- cell cycle arrest (MCF7-PalboR cells): significant G2/M arrest
- S phase (cell cycle distribution) (MCF7-PalboR cells; p≤0.05 versus vehicle): Significant S phase reduction
- TGI % (T47D): 82* %
- cell cycle arrest (OVCAR3 cells [5]): Significant G1 arrest
- S phase (cell cycle distribution) (OVCAR3 cells [5]; p≤0.05 versus vehicle): Significant S phase reduction
- IC50 [6]: 144 nM
- HNSTD [7]: 15 mg/kg BID
- cell cycle arrest (MCF7 cells [8]): significant G2/M arrest
- S phase (cell cycle distribution) (MCF7 cells [8]; p≤0.05 versus vehicle): Significant S phase reduction
- IC50 (OVCAR3 cells [9]): 118 nM
- Loewe Volume (T-47D Cells): 0.01
- Best CI (T-47D Cells; Best CI Level 70): 0.95

From US20250127759A1, “METHODS AND DOSING REGIMENS COMPRISING A CDK2 INHIBITOR FOR THE TREATMENT OF CANCER” (PFIZER INC., priority 2021, published 2025)
